According to BindingDB's records for doi:10.1021/jm020865i (Departement D'Ingenierie Et D'Etudes Des Proteines, 2002):
*1 amine or outer side, *2 acyl side, *3 side chain or, on linkers, in order; H or OH if unused. Where a SMILES comes first, the peptide text is derived from it. The star is where a group is joined. pNA = O=[N+]([O-])c1ccc(N*)cc1; Suc = O=C(CCC(=O)[*:2])[*:1]

Tests used:
[1] = target: Peptidyl-prolyl cis-trans isomerase A, cyclophilin A (Homo sapiens) (UniProt P62937); assay: The compound was evaluated for its binding affinity against Human Cyclophilin hCyp-18 Peptidyl-prolyl isomerase
[2] = target: Peptidyl-prolyl cis-trans isomerase A, cyclophilin A (Homo sapiens) (UniProt P62937); assay: Inhibitory activity against Human Cyclophilin hCyp-18 Peptidyl-prolyl isomerase by using the standard trypsin-coupled PPIase (peptidyl-prolyl isomerases) assay
[3] = target: Peptidyl-prolyl cis-trans isomerase A, cyclophilin A (Homo sapiens) (UniProt P62937); assay: The compound was evaluated for its binding affinity against Human Cyclophilin hCyp-18 Peptidyl-prolyl isomerase; remark: listed apart in the source

Peptidyl-prolyl cis-trans isomerase A, cyclophilin A (Homo sapiens), sequence (P62937 whole entry, looked up): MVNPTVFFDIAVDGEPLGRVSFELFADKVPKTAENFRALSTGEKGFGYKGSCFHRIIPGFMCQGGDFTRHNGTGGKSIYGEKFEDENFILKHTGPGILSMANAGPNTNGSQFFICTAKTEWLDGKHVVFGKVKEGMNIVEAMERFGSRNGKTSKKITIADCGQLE

| Compound | Kd [1] [µM] | IC50 [2] [µM] | Kd [3] [µM] |
| --- | --- | --- | --- |
| CC(=O)N[C@@H](C)C(=O)N[C@@H](C)C(=O)N1CCC[C@H]1C(=O)N[C@@H](Cc1ccccc1)C(=O)Nc1ccc([N+](=O)[O-])cc1 [1-[2-(2-Acetylamino-propionylamino)-propionyl]-pyrrolidine-2-carboxylic acid [1-(4-nitro-phenylcarbamoyl)-2-phenyl-ethyl]-amide] (Ac-AAPF-pNA) | 145 | 640 |  |
| CC(=O)N[C@@H](C)C(=O)NCC(=O)C(=O)N1CCCC1C(=O)N[C@@H](Cc1ccccc1)C(=O)Nc1ccc([N+](=O)[O-])cc1 (some centres not stated) [1-[3-(2-Acetylamino-propionylamino)-2-oxo-propionyl]-pyrrolidine-2-carboxylic acid [1-(4-nitro-phenylcarbamoyl)-2-phenyl-ethyl]-amide] | 127 | 215 |  |
| C[C@H](NC(=O)CCC(=O)O)C(=O)N[C@@H](C)C(=O)N1CCC[C@H]1C(=O)N[C@@H](Cc1ccccc1)C(=O)Nc1ccc([N+](=O)[O-])cc1 [N-[1-(1-Methyl-2-{2-[1-(4-nitro-phenylcarbamoyl)-2-phenyl-ethylcarbamoyl]-pyrrolidin-1-yl}-2-oxo-ethylcarbamoyl)-ethyl]-succinamic acid] (Suc-AAPF-pNA) | 135 | 540 |  |
| C[C@H](NC(=O)CCC(=O)O)C(=O)NCC(=O)N1CCC[C@H]1C(=O)N[C@@H](Cc1ccccc1)C(=O)Nc1ccc([N+](=O)[O-])cc1 [N-[1-(2-{2-[1-(4-Nitro-phenylcarbamoyl)-2-phenyl-ethylcarbamoyl]-pyrrolidin-1-yl}-2-oxo-ethylcarbamoyl)-ethyl]-succinamic acid] (Suc-AGPF-pNA) |  | 1450 | 140 |
| CCOP(=O)(CNC(=O)[C@H](C)NC(=O)CCC(=O)O)N1CCCC1C(=O)N[C@@H](Cc1ccccc1)C(=O)Nc1ccc([N+](=O)[O-])cc1 (some centres not stated) [N-{1-[(Ethoxy-{2-[1-(4-nitro-phenylcarbamoyl)-2-phenyl-ethylcarbamoyl]-pyrrolidin-1-yl}-phosphinoylmethyl)-carbamoyl]-ethyl}-succinamic acid] | 20 | 15 |  |
| COC(=O)Cc1ccc(NC(=O)[C@H](Cc2ccccc2)NC(=O)C2CCCN2P(=O)(O)CNC(=O)[C@H](C)NC(C)=O)cc1 (some centres not stated) [[(2-Acetylamino-propionylamino)-methyl]-{2-[1-(4-methoxycarbonylmethyl-phenylcarbamoyl)-2-phenyl-ethylcarbamoyl]-pyrrolidin-1-yl}-phosphinic acid anion] | 79 |  |  |
| CCOP(=O)(CNC(=O)[C@H](C)NC(C)=O)N1CCCC1C(=O)N[C@H](CNc1ccc([N+](=O)[O-])cc1)Cc1ccccc1 (some centres not stated) [[(2-Acetylamino-propionylamino)-methyl]-{2-[1-benzyl-2-(4-nitro-phenylamino)-ethylcarbamoyl]-pyrrolidin-1-yl}-phosphinic acid ethyl ester] | 200 |  |  |
